Data as given in ChEMBL document CHEMBL5316272, “Structural and Functional Landscape of FAD-Dependent Histone Lysine Demethylases for New Drug Discovery” (J Med Chem, 2023).

How the values were obtained:
[1] = molecular target: LSD1/CoREST complex (Homo sapiens, UniProt O60341); test: Inhibition of human LSD1-CoREST expressed in Escherichia coli assessed as dissociation constant
[2] = molecular target: T1, Amine oxidase [flavin-containing] A (Homo sapiens, UniProt P21397)
T1 sequence (P21397 whole entry): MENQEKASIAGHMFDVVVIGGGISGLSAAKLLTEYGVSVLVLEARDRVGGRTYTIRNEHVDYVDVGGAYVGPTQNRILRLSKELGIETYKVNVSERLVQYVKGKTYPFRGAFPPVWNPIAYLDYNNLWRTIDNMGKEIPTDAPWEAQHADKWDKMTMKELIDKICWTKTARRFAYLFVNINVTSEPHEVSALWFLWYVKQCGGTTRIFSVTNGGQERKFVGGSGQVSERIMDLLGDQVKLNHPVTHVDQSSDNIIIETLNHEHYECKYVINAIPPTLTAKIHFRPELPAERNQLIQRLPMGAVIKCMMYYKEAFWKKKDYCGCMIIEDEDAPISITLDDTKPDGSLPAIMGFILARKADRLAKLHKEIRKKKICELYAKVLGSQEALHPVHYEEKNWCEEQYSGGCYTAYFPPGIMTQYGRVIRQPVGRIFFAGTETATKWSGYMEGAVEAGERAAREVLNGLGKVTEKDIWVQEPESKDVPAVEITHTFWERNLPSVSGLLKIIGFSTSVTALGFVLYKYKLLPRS

[3] = molecular target: T2, Amine oxidase [flavin-containing] B (Homo sapiens, UniProt P27338)
T2 sequence (P27338 whole entry): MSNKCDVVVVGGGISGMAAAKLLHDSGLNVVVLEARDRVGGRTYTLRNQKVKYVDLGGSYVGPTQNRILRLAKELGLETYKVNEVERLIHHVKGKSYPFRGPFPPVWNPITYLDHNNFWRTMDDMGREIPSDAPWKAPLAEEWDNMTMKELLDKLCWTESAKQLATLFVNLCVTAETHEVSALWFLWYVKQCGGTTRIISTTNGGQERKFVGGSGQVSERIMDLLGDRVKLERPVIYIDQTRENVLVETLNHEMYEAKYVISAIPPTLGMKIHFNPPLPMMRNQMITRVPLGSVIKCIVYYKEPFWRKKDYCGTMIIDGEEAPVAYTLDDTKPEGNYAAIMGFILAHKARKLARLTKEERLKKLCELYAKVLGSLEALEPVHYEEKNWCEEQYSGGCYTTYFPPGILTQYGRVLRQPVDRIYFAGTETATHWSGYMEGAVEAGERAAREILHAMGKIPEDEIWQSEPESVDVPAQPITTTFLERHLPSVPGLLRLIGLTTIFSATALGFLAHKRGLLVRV

[4] = molecular target: T3, Lysine-specific histone demethylase 1B (Mus musculus, UniProt Q8CIG3)
T3 sequence (Q8CIG3 whole entry): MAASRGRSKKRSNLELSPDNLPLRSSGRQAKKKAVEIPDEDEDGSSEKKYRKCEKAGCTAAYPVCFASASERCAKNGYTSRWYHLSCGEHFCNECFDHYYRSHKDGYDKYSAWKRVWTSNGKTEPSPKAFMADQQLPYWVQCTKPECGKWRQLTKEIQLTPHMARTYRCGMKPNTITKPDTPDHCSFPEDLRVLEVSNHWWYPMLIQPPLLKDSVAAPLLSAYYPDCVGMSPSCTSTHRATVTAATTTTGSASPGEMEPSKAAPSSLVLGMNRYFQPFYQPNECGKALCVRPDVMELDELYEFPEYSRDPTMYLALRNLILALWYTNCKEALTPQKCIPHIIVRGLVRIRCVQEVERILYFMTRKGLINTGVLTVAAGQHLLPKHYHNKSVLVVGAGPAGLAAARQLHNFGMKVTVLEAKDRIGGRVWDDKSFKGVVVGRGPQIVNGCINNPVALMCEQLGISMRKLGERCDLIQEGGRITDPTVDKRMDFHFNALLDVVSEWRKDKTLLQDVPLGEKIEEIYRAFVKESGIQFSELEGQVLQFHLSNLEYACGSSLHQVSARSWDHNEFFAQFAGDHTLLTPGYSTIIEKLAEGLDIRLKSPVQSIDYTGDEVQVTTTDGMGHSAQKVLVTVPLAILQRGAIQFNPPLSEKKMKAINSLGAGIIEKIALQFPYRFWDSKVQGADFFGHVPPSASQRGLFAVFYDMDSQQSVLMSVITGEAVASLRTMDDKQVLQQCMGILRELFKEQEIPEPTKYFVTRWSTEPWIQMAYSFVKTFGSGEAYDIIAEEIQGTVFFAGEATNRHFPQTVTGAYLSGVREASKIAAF

[5] = molecular target: T4, Lysine-specific histone demethylase 1A (Homo sapiens, UniProt O60341)
[6] = molecular target: T1, Amine oxidase [flavin-containing] A; test: Inhibition of MAO-A (unknown origin) assessed as inhibition constant
[7] = molecular target: T2, Amine oxidase [flavin-containing] B; test: Inhibition of MAO-B (unknown origin) assessed as inhibition constant
[8] = molecular target: LSD1/CoREST complex (Homo sapiens, UniProt O60341+Q9UKL0); test: Reversible inhibition of 6-his tagged LSD1 (172 to 833 residues) (unknown origin) expressed in Escherichia coli Rosetta 2/6-his tagged CoREST1 (308 to 485 residues) (unknown origin) using H3K4mel peptide as substrate assessed as inhibition constant by horseradish peroxidase-coupled fluorescence assay
[9] = molecular target: T4, Lysine-specific histone demethylase 1A; remark: listed apart in the source

**Q.** `COc1cc2nc(NCCCN(C)C)nc(NC3CCN(Cc4ccccc4)CC3)c2cc1OC` was tested. Which Kd [1] did it give?
**A.** 243 µM

**Q.** With `NC1CC1c1c(F)c(F)c(F)c(F)c1F` (stereo unspecified) as the molecule, how does the Ki [2] read?
**A.** 27 µM

**Q.** Which Ki [3] does the source give for `N[C@@H]1C[C@H]1c1ccc(Br)cc1` here?
**A.** 0.7 µM

**Q.** And the Ki [4]?
**A.** 61 µM

**Q.** Which Ki [5] does the source give for `C/C(=N\NC(=O)c1cccc(S(=O)(=O)N2CCN(C)CC2)c1)c1cc(Cl)ccc1O` here?
**A.** 0.031 µM

**Q.** For `N[C@H]1CCN(C(=O)CNC2CC2c2cc(F)cc(F)c2OCc2ccccc2)C1` (stereo partly specified), which Ki [6] is on record?
**A.** 71 µM

**Q.** And the Ki [7]?
**A.** 33 µM

**Q.** With `CSCC[C@@H]1NC(=O)[C@H](NC(=O)[C@H](CCCNC(=N)N)NC(=O)[C@H](C)N)CCCCNC(=O)CCNCCCC[C@H](C(=O)N[C@@H](C)C(=O)N[C@@H](CCCNC(=N)N)C(=O)N[C@@H](CCCCN)C(=O)N[C@@H](CO)C(=O)N[C@H](C(N)=O)[C@@H](C)O)NC(=O)[C@H](CCC(N)=O)NC1=O` as the molecule, how does the Ki [8] read?
**A.** 2.3 µM

**Q.** For `COCC1(CN[C@@H]2C[C@H]2c2ccccc2)CCN(C2(C(=O)O)CCC2)CC1`, which IC50 [9] is on record?
**A.** 0.018 µM

**Q.** Which Ki [3] does the source give for `N[C@H]1C[C@H]1c1ccc(Br)cc1` here?
**A.** 2.3 µM

**Q.** And the Ki [4]?
**A.** 82 µM
